In the supplement of paper PMC10307832:

Tests used:
Assay in all cases: relative viability (nuclei count vs DMSO), 5 days (fraction); higher = more cells survive
Motesanib + Palbociclib = compound: CC1(C)CNc2cc(NC(=O)c3cccnc3NCc3ccncc3)ccc21 [Motesanib] + CC(=O)c1c(C)c2cnc(Nc3ccc(N4CCNCC4)cn3)nc2n(C2CCCC2)c1=O [Palbociclib] (partner 0.5 µM)
Summary of the method: (§1)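 Cells from lung cancer lines were seeded into 1536-well plates and, one day later, dosed by pin tool. Treatments were either a single drug or a fixed dose of an anchor drug with five library-drug doses (not always all listed) in √10 steps. After 5 days, nuclei were stained in a one-step fixation (final 0.05% Triton X-100, 1% formaldehyde, 1 ug/ml Hoechst) and counted on 4× images, and relative viability is the treated-to-vehicle nuclei ratio, as the median of duplicate plates.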

Motesanib + Navitoclax = compound: CC1(C)CNc2cc(NC(=O)c3cccnc3NCc3ccncc3)ccc21 [Motesanib] + CC1(C)CCC(c2ccc(Cl)cc2)=C(CN2CCN(c3ccc(C(=O)NS(=O)(=O)c4ccc(N[C@H](CCN5CCOCC5)CSc5ccccc5)c(S(=O)(=O)C(F)(F)F)c4)cc3)CC2)C1 [Navitoclax] (partner 0.5 µM)
Summary of the method: as §1

[1] = compound: C[C@@]1(C(=O)Nc2ccc(F)nc2)CCCN1c1nc(Nc2cc(C3CC3)n[nH]2)c2cccn2n1 + C[C@@H](Oc1cc(-c2cnn(C3CCNCC3)c2)cnc1N)c1c(Cl)ccc(F)c1Cl [Crizotinib] (partner 1 µM)
Summary of the method: as §1

[2] = compound: C[C@@]1(C(=O)Nc2ccc(F)nc2)CCCN1c1nc(Nc2cc(C3CC3)n[nH]2)c2cccn2n1 + C[C@]1(O)C[C@@H](c2nc(-c3ccc4ccc(-c5ccccc5)nc4c3)c3c(N)nccn32)C1 [Linsitinib] (partner 1 µM)
Summary of the method: as §1

| Cell Line | relative viability (Motesanib + Palbociclib; first compound 0.01 µM) | relative viability (Motesanib + Palbociclib; first compound 0.03162 µM) | relative viability (Motesanib + Palbociclib; first compound 0.1 µM) | relative viability (Motesanib + Palbociclib; first compound 0.3162 µM) | relative viability (Motesanib + Palbociclib; first compound 1 µM) | relative viability (Motesanib + Navitoclax; first compound 0.01 µM) | relative viability (Motesanib + Navitoclax; first compound 0.03162 µM) | relative viability (Motesanib + Navitoclax; first compound 0.1 µM) | relative viability (Motesanib + Navitoclax; first compound 0.3162 µM) | relative viability (Motesanib + Navitoclax; first compound 1 µM) | relative viability ([1]; first compound 0.04 µM) | relative viability ([1]; first compound 0.1265 µM) | relative viability ([1]; first compound 0.4 µM) | relative viability ([1]; first compound 1.265 µM) | relative viability ([2]; first compound 0.04 µM) | relative viability ([2]; first compound 0.1265 µM) | relative viability ([2]; first compound 0.4 µM) | relative viability ([2]; first compound 1.265 µM) |
| --- | --- | --- | --- | --- | --- | --- | --- | --- | --- | --- | --- | --- | --- | --- | --- | --- | --- | --- |
| NCI-H727 | 0.631 | 0.652 | 0.687 | 0.639 | 0.606 | 0.519 | 0.349 | 0.321 | 0.52 | 0.446 | 0.687 | 0.436 | 0.259 | 0.211 | 0.349 | 0.135 | 0.232 | 0.283 |
| NCI-H838 | 0.204 | 0.203 | 0.213 | 0.198 | 0.241 | 1.25 | 1.21 | 1.09 | 1.25 | 1.14 | 0.868 | 0.67 | 0.621 | 0.708 | 1.09 | 0.848 | 0.753 | 0.874 |
| NCI-H1355 | 0.429 | 0.413 | 0.397 | 0.392 | 0.38 | 0.994 | 0.946 | 0.882 | 1.06 | 0.957 | 0.896 | 0.824 | 0.728 | 1.02 | 0.815 | 0.882 | 0.727 | 0.887 |
| NCI-H1437 | 0.271 | 0.266 | 0.295 | 0.302 | 0.278 | 1.09 | 1.05 | 1.07 | 1.11 | 1.13 | 0.932 | 0.714 | 0.561 | 0.762 | 0.935 | 0.833 | 0.671 | 0.843 |
| NCI-H1651 | 0.528 | 0.523 | 0.538 | 0.508 | 0.513 | 1.08 | 0.946 | 1.09 | 0.994 | 1 | 0.762 | 0.896 | 0.775 | 0.846 | 1.04 | 0.898 | 0.984 | 1.12 |
| NCI-H1666 | 0.649 | 0.577 | 0.679 | 0.751 | 0.63 | 0.947 | 0.979 | 0.99 | 1.05 | 0.88 | 0.811 | 0.845 | 0.708 | 0.574 | 0.89 | 0.87 | 0.753 | 0.831 |
| NCI-H1734 | 0.359 | 0.349 | 0.387 | 0.348 | 0.324 | 0.861 | 0.915 | 0.796 | 0.959 | 0.938 | 0.554 | 0.51 | 0.358 | 0.509 | 0.771 | 0.722 | 0.794 | 0.903 |
| NCI-H1755 | 0.459 | 0.46 | 0.487 | 0.477 | 0.48 | 0.938 | 0.966 | 1.02 | 0.991 | 1 | 0.919 | 0.793 | 0.756 | 0.836 | 1.01 | 0.954 | 0.895 | 1.04 |
| NCI-H1792 |  | 0.583 | 0.653 | 0.675 | 0.667 | 0.612 | 0.605 | 0.584 | 0.578 | 0.703 | 0.896 | 0.677 | 0.62 | 0.473 | 0.654 | 0.596 | 0.503 | 0.713 |
